Values joined by “and” are separate entries in the source; they are usually repeats but may differ in a detail not shown here. Equal entries are not always repeated. Where two headings read alike, the source gives them in different places.
Columns and labels:
[1] = test system: P. aeruginosa PA14 mexA transposon mutant; experiment: microbe, parasite or virus in culture; format: cell-based; settings: Pseudomonas aeruginosa
Description: (§1) Overnight cultures were diluted 1:150 in LB broth and added to a 96-well plate. Antibiotics were serially diluted 1:2 and added to columns of the 96-well plate and grown at 37 °C with continuous shaking. Cell growth was measured using optical density at 600 nm (OD600). MIC assays were performed in either BioTek Synergy HT or Tecan InfiniteM200 Pro microplate readers.
(§2) P. aeruginosa PA14 transposon mutants were generated by the Ausubel Lab (https://pa14.mgh.harvard.edu/cgi-bin/pa14/home.cgi)[67]. The MICs of fluorofolin and TMP against strains with disrupted MexA, MexB and OprM were determined as above and compared to the parental strain. As transposon mutants in MexB were represented twice in this collection, the MIC was confirmed across both mutant strains.

[2] = test system: P. aeruginosa PA14 oprM transposon mutant; experiment: microbe, parasite or virus in culture; format: cell-based; settings: Pseudomonas aeruginosa
Description: as §1, §2

[3] = test system: P. aeruginosa PA14 mexB transposon mutant; experiment: microbe, parasite or virus in culture; format: cell-based; settings: Pseudomonas aeruginosa
Description: as §1, §2

[4] = test system: P. aeruginosa PA14 folate metabolism (dUMP, AICAR, GAR); experiment: Metabolomics (LC–MS) of treated PA14; format: cell-based, Pseudomonas aeruginosa; settings: PA14, 15 min
Description: Metabolites were extracted by vacuum filtering 15 ml of treated cells using 0.45 μm HNWP Millipore nylon membranes and placing the filters into an ice-cold quenching solution of 40:40:20 methanol:acetonitrile:H2O. Extracts were kept on dry ice for 1 h and centrifuged at 16,000 g for 1 h at 4 °C. The supernatant was kept at -80 °C until mass spectrometry analysis. Liquid chromatography-mass spectrometry (LC-MS) analysis of metabolites was performed on an Orbitrap Exploris 240 mass spectrometer coupled with hydrophilic interaction liquid chromatography (HILIC)[68]. […] Waters 196006724), with a gradient of solvent A (95 vol. % H2O, 5 vol. % acetonitrile, with 20 mM ammonium acetate and 20 mM ammonium hydroxide, pH 9.4) and solvent B (acetonitrile). Flow rate was 0.15 ml min^-1 and column temperature was set at 25 °C. […] Raw mass spectrometry data were converted to mzXML format by MSConvert (ProteoWizard). Pick-peaking was done on […].0.8.0, Elucidata).

Haemolysis = format: cell-based, sheep; settings: sheep, defibrinated sheep red blood cells, 1 h, vs Triton X-100 100% lysis
Description: (§3) Samples were treated at 37 °C with shaking for 1 h and then centrifuged. Supernatants were collected and absorbances were measured at 405 nm in a Tecan InfiniteM200 Pro microplate reader.

[5] = test system: Pseudomonas aeruginosa PA14; experiment: MIC against P. aeruginosa PA14 in LB broth; format: cell-based
Description: as §1

P. aeruginosa PA14 [6] = experiment: Colony-forming units counting after antibiotic treatment; format: cell-based, Pseudomonas aeruginosa; settings: 2× MIC (fluorofolin 6.2, TMP 250, polymixin B 4 μg ml^−1)
Description: P. aeruginosa PA14 overnight cultures were diluted 1:100 and grown to exponential phase (OD600 = 0.4–0.6). Cultures were diluted 1:10 and treated with antibiotic. At each time point, 150 μl of culture was removed, serial diluted 1:10 six times and plated onto LB agar plates. Plates were grown overnight at 37 °C, after which visible colonies were counted. C.f.u.s ml^−1 are reported from dilutions in which ~10–100 single colonies were visible.

P. aeruginosa PA14 [7] = format: cell-based, Pseudomonas aeruginosa; settings: PA14, 0.25 h
Description: Overnight P. aeruginosa PA14 or E. coli lptD4213 cultures were diluted 1:100 and grown to mid exponential phase at 37 °C. Cultures were diluted 1:10 into PBS and treated with antibiotics for 15 min. P. aeruginosa PA14 was stained with TO-PRO-3 (640 nm excitation, 670/30 nm emission) to measure cell membrane integrity. E. coli lptD4213 was stained with both TO-PRO-3 and DiOC2(3) (ThermoFisher B34950) to measure cell membrane integrity and membrane potential. DiOC2(3) was evaluated as a ratio of green (488 nm excitation, 525/50 nm emission) to red (488 nm excitation, 610/20 nm emission)[66]. The LSRII flow cytometer (BD Biosciences) at the Flow Cytometry Resource Facility, Princeton University, was used to measure the fluorescent intensities of both dyes in response to antibiotic treatment. 100,000 events were recorded for each data file. Gates for permeabilization were determined using polymixin B (Sigma-Aldrich P1004) and untreated controls. Gates for depolarization were determined using carbonyl cyanide m-chlorophenyl hydrazone (CCCP) as a positive control. Data were analysed using FlowJo v.10 software.

sheep red blood cells = experiment: Haemolysis; format: cell-based; settings: 1 h, vs Triton X-100 100% lysis
Description: as §3

P. aeruginosa = experiment: MIC of known DHFR inhibitors against P. aeruginosa; format: cell-based, Pseudomonas aeruginosa; settings: strain not named
PA14 = experiment: Checkerboard assay fluorofolin / sulfamethoxazole; format: cell-based, Pseudomonas aeruginosa; settings: PA14, Fluorofolin 0 ug/mL
Description: Cells were seeded in a similar manner as described above for MIC calculations. […] Fractional inhibitory concentrations (FICs) were calculated as [[…], where [fluorofolin] and [SMX] are the concentrations of compounds in a given well, which were divided by the concentration of drug at the MIC for each compound.

P. aeruginosa PA14 [8] = experiment: In vivo PA14 murine thigh infection; settings: neutropenic CD-1 mice, 24 h post infection; fluorofolin 25 mg kg^−1 subcutaneous and/or SMX 100 mg kg^−1 intraperitoneal at 1 and 12 h; one value per mouse
From the text: For P. aeruginosa thigh infection model and maximum tolerated dose (MTD) studies, care and handling of female 5–6-week-old CD-1 conformed to Institutional Animal Care and Use Committee (IACUC) policies as carried out at the University of North Texas Health Science Center (Fort Worth, Texas) under UNTHSC IACUC-approved protocol nos. IACUC-2021-0003 and IACUC-2020-0039. Rodents were fed either base chow (Envigo) or base diet supplemented with 1.8 g kg^−1 thymidine (Sigma T9250) starting at 2 days before infection. All procedures were conducted in accordance with the UNTHSC IACUC-approved protocol. Animals were housed in rooms undergoing 10–15 air changes per hour. Air provided to the animal rooms was controlled for temperature and humidity and is fully monitored 24 h a day. Air pressure was balanced according to room use. Lighting was controlled in individual rooms by automatic timers with a standard 12 h on, 12 h off cycle.
Female 5–6-week-old CD-1 mice were rendered neutropenic by intraperitoneal cyclophosphamide treatment (Cytoxan) before this study. On day 0, mice were infected intramuscularly with 5.33 log c.f.u. per thigh PA14. Mice were treated subcutaneously with fluorofolin at 1 and 12 h post infection. For co-treatment, mice were treated with SMX intraperitoneally at 1 and 12 h post infection. […] In vivo efficacy was evaluated by the UNTHSC.

[9] = 2× MIC (fluorofolin 6.3, TMP 250 μg ml^−1), one value per replicate

For COc1cc(Cc2cnc(N)nc2N)cc(OC)c1OC [Trimethoprim, trimethoprim, reference compound], the MIC [1] was 50 µg/mL, the MIC [2] was 25 µg/mL and the MIC [3] was 25 µg/mL. The “change of AICAR and dUMP” value ([4]; 2× MIC) was “significant upregulation”, the “Normalized Ion Counts AICAR” value [4, 9] was 1099947 and 1907694 and 151411 and the “Normalized Ion Counts GAR” value [4, 9] was 163607 and 121038 and 24881.8. The “Normalized Ion Counts dUMP” value [4, 9] was 2000000 and 3000000, the hemolysis at 1 h, 0.78125 ug/mL (Haemolysis; 0.78125 ug/mL) was 0.423% and the hemolysis at 1 h, 1.5625 ug/mL (Haemolysis; 1.5625 ug/mL) was 0.123%. For the same molecule, the hemolysis at 1 h, 3.125 ug/mL (Haemolysis; 3.125 ug/mL) was 0.0766%, the hemolysis at 1 h, 6.25 ug/mL (Haemolysis; 6.25 ug/mL) was 1.27% and the hemolysis at 1 h, 12.5 ug/mL (Haemolysis; 12.5 ug/mL) was 0.258%. The hemolysis at 1 h, 25 ug/mL (Haemolysis; 25 ug/mL) was 0.606%, the hemolysis at 1 h, 50 ug/mL (Haemolysis; 50 ug/mL) was 4.08% and the MIC ([5]; P. aeruginosa PA14) was 125 µg/mL. The MIC ([5]; Pseudomonas aeruginosa, Wildtype PA14, control for each drug stock, read-out: MIC) was 125 µg/mL, the “PA14 CFU/mL, Mean” value (P. aeruginosa PA14 [6]; Time 0 h) was 197000 CFU/mL and the “PA14 CFU/mL, Mean” value (P. aeruginosa PA14 [6]; Time 1 h) was 178000 CFU/mL. The “PA14 CFU/mL, Mean” value (P. aeruginosa PA14 [6]; Time 2 h) was 187000 CFU/mL, the “PA14 CFU/mL, Mean” value (P. aeruginosa PA14 [6]; Time 4 h) was 338889 CFU/mL and the “Permeabilized (TO-PRO-3 gate)” value (P. aeruginosa PA14 [7]) was 0.42.

In the case of Nc1nc(N)c2c(ccc3c2ccn3Cc2ccc(-c3ccccc3)cc2)n1 [IRS-16], the “% Hemolysis, Mean” value (sheep red blood cells; 0.78125 ug/mL) is reported as 6.068%, the “% Hemolysis, Mean” value (sheep red blood cells; 1.5625 ug/mL) is reported as 12.9642% and the “% Hemolysis, Mean” value (sheep red blood cells; 3.125 ug/mL) is reported as 26.947%. For the same molecule, the “% Hemolysis, Mean” value (sheep red blood cells; 6.25 ug/mL) was 25.0196%, the “% Hemolysis, Mean” value (sheep red blood cells; 12.5 ug/mL) was 26.9567% and the “% Hemolysis, Mean” value (sheep red blood cells; 25 ug/mL) was 30.487%. For the same molecule, the “% Hemolysis, Mean” value (sheep red blood cells; 50 ug/mL) was 39.1325% and the MIC (P. aeruginosa) was > 50 µg/mL.

In the case of Cc1cc(NS(=O)(=O)c2ccc(N)cc2)no1 [SMX, Sulfamethoxazole, reference compound], the FIC index (PA14; SMX 625.00 ug/mL) is reported as 1, the FIC index (PA14; SMX 1250.00 ug/mL) is reported as 2 and the “PA14 load in thigh” value (P. aeruginosa PA14 [8]) is reported as 8.8 log 10(CFU/ mouse) and 8.33 log 10(CFU/ mouse) and 8.57 log 10(CFU/ mouse) and 7.94 log 10(CFU/ mouse).

— paper PMC11087268, “A folate inhibitor exploits metabolic differences in Pseudomonas aeruginosa for narrow-spectrum targeting” (Nature Microbiology, 2024)
